Results as given in patent US20070135405A1, “Novel diazabicyclononene and tetrahydropyridine derivatives with a new polar side-chain” (priority 2003, published 2007).
pIC50: −log10 of the molar value.

molecular target: T1, human recombinant renin (Homo sapiens, UniProt P00797); test: Inhibition of human recombinant renin, enzymatic in vitro assay with Ang I detection by EIA; type: biochemical; conditions: human recombinant renin 0.16 ng/mL, synthetic human angiotensin (1-14) 0.5 μM, 37° C. for 3 h; read-out: IC50 (concentration of renin inhibition that inhibited the enzyme activity by 50%)
T1 sequence (P00797 67-406): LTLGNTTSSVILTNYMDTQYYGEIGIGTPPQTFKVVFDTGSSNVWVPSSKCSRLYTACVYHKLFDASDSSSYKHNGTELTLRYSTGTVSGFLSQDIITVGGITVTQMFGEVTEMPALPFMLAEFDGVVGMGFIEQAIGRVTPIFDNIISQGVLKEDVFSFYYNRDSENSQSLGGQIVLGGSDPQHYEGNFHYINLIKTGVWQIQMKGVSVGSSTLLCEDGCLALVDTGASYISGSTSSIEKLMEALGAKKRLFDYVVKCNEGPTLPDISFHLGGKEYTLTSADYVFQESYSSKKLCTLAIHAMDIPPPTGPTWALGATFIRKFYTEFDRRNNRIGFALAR
Procedure: Inhibition of Human Recombinant Renin by the Compounds of the Invention The enzymatic in vitro assay was performed in 384-well polypropylene plates (Nunc). The assay buffer consisted of 10 mM PBS (Gibco BRL) including 1 mM EDTA and 0.1% BSA. The incubates were composed of 50 μL per well of an enzyme mix and 2.5 µL of renin inhibitors in DMSO. The enzyme mix was premixed at 4° C. and consists of the following components: • human recombinant renin (0.16 ng/mL)●synthetic human angiotensin (1-14) (0.5 μM) • hydroxyquinoline sulfate (1 mM) The mixtures were then incubated at 37° C. for 3 h. To determine the enzymatic activity and its inhibition, the accumulated Ang I was detected by an enzyme immunoassay (EIA) in 384-well plates (Nunc). 5 μL of the incubates or standards were transferred to immuno plates which were previously coated with a covalent complex of Ang I and bovine serum albumin (Ang I—BSA). 75 μL of Ang I-antibodies in essaybuffer above including 0.01% Tween 20 were added and a primary incubation made at 4° C. overnight. The plates were washed 3 times with PBS including 0.01% Tween 20, and then incubated for 2 h at rt with an antirabbit-peroxidase coupled antibody (WA 934, Amersham).

Compound	pIC50
Cc1c(CN(C(=O)C2=C(c3ccc(CCCOc4c(F)ccc(F)c4Cl)cc3)C[C@@H]3CC[C@H]2N3)C2CC2)ccnc1OCCC(N)=O (racemic) [Example 7, (rac.)-(1R*, 5S*)-3-{4-[3-(2-Chloro-3,6-difluorophenoxy)propyl]phenyl}-8-azabicyclo[3.2.1]oct-2-ene-2-carboxylic acid [2-(2-carbamoylethoxy)-3-methylpyridin-4-ylmethyl]cyclopropylamide]	8.52
Cc1c(CN(C(=O)C2=C(c3ccc(CCCOc4c(F)ccc(F)c4Cl)cc3)C[C@@H]3CC[C@H]2N3)C2CC2)ccnc1OCCC(=O)O (racemic) [Example 5, (rac.)-(1R*, 5S*)-3-(4-{[(3-{4-[3-(2-Chloro-3,6-difluorophenoxy)propyl]-phenyl}-8azabicyclo[3.2.1]oct-2-ene-2-carbonyl)cyclopropylamino]methyl}-3-methyl-pyridin-2-yloxy)propionic acid]	8.52
Cc1c(CN(C(=O)C2=C(c3ccc(CCCOc4c(F)ccc(F)c4Cl)cc3)CC3CS(=O)(=O)CC2N3)C2CC2)ccnc1OCCCO (racemic) [Example 3, (rac.)-(1R*, 5S*)-7-14-[3-(2-Chloro-3,6-difluorophenoxy)propyl]phenyl}-3,3-dioxo-3λ^6-thia-9-azabicyclo[3.3.1]non-6-ene-6-carboxylic acid cyclopropyl-[2-(3-hydroxypropoxy)-3-methylpyridin-4-ylmethyl]amide]	8.26
COC(=O)CCOc1nccc(CN(C(=O)C2=C(c3ccc(CCCOc4c(F)ccc(F)c4Cl)cc3)CC3CCC2N3)C2CC2)c1C (racemic) [Example 6, (rac.)-(1R *, 5S*)-3-(4-{[(3-({4-[3-(2-Chloro-3,6-difluorophenoxy)propyl]-phenyl}-8-azabicyclo[3.2.1]oct-2-ene-2-carbonyl)cyclopropylamino]methyl}-3-methylpyridin-2-yloxy)propionic acid methyl ester]	8.17

The next compounds have a higher pIC50 than those just listed; values first:

pIC50	Compound
9.60	Cc1c(CN(C(=O)C2=C(c3ccc(CCCOc4c(F)ccc(F)c4Cl)cc3)C[C@@H]3CC[C@H]2N3)C2CC2)ccnc1OCCCO (racemic) [Example 1, (rac.)-(1R*, 5S*)-3-{4-[3-(2-Chloro-3,6-difluorophenoxy)propyl]phenyl}-8-azabicyclo[3.2.1]oct-2-ene-2-carboxylic acid cyclopropyl-[2-(3-hydroxy-propoxy)-3-methylpyridin-4-ylmethyl]amide]
9.74	Cc1cc(Cl)c(OCCOc2ccc(C3=C(C(=O)N(Cc4ccnc(OCCCO)c4C)C4CC4)C4CCC(C3)N4)cc2)c(Cl)c1 (racemic) [Example 2, (rac.)-(1R*, 5S*)-3-{4-[2-(2,6Dichloro-4-methylphenoxy)ethoxy]phenyl}-8-azabicyclo[3.2.1]oct-2-ene-2-carboxylic acid cyclopropyl-[2-3-hydroxy-propoxy)-3-methylpyridin4-ylmethyl]amide]
9.26	Cc1c(CN(C(=O)C2=C(c3ccc(CCCOc4c(F)ccc(F)c4Cl)cc3)CC3COCC2N3)C2CC2)ccnc1OCCCO (racemic) [Example 4, (rac.)-(1R*, 5S*)-7-(4-13-(2-Chloro-3,6-difluorophenoxy)propyl]phenyl}-3-oxa-9-azabicyclo[3.3.1]non-6-ene-6-carboxylic acid cyclopropyl-[2-(3-hydroxypropoxy)-3-methylpyridin-4-ylmethyl]amide]
